From US10807971B2, “Pyrrolidinone compounds” (Eli Lilly and Company, priority 2016, dated 2020)
Counter-ions that a name gives are not always drawn. Values belong to the molecule of their own block, whether it stands above or below them.

What was measured:
obese DIO mice = assay: Therapeutic weight loss effect in HFD feeding induced obese mouse model (DIO mice); type: in vivo; settings: day 14
Procedure: To determine the therapeutic weight loss effects and improvement of metabolic parameters, the compound from the invention is tested in a HFD feeding induced obese mouse model (DIO mice). In this model, C57/B16J male mouse is fed with the 60% HFD (D12492i, Research Diets) for 16˜28 weeks to establish obesity with body weight reaching around 50 g. The mice will gradually increase their body weight to about 50 g and maintain that weight in this obese state.

[1] = biological target: mouse DPP-4 ((29-760)-His) (Mus musculus (Mouse), UniProt P28843); assay: Enzymatic activity assay of DPP-4 (Gly-Pro-AMC fluorescence); type: biochemical; settings: (SD, n), read-out: mDPP-4 IC50
Procedure: (§1) Inhibition of the catalytic activity of human and mouse DPP-4 by the compound in the present invention is monitored by the formation of product fluorescence AMC from substrate Gly-Pro-AMC (Sigma, G2761) on an Envision plate reader. […] The IC50 value is calculated typically from a 10-point dose titration curve using the 4-parameter logistic equation.

[2] = biological target: Human DPP-4 ((39-766)-His) (Homo sapiens (Human), UniProt P27487); assay: as above; type: biochemical; settings: (SD, n), read-out: hDPP-4 IC50
Procedure: as §1

Chain of Human DPP-4 ((39-766)-His) (P27487 39-766): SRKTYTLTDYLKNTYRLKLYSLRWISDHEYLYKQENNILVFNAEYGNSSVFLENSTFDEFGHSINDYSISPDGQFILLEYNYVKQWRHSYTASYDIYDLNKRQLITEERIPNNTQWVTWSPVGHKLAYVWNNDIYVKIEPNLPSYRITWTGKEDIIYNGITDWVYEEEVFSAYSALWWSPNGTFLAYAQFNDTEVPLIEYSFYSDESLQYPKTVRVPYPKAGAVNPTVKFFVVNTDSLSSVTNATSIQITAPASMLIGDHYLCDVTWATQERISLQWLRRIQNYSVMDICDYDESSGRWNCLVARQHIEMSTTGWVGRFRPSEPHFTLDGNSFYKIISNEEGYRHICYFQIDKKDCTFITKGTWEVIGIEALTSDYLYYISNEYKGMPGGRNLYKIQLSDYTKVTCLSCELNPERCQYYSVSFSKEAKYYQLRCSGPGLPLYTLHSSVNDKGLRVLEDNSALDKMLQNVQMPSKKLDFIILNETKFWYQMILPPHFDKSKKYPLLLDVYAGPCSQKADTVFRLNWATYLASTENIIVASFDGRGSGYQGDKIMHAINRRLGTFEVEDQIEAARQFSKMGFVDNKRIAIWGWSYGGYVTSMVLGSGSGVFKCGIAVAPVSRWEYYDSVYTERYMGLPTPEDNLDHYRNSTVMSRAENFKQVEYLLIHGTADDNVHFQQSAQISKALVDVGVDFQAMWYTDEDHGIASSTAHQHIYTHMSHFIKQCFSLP
Chain of mouse DPP-4 ((29-760)-His) (P28843 29-760): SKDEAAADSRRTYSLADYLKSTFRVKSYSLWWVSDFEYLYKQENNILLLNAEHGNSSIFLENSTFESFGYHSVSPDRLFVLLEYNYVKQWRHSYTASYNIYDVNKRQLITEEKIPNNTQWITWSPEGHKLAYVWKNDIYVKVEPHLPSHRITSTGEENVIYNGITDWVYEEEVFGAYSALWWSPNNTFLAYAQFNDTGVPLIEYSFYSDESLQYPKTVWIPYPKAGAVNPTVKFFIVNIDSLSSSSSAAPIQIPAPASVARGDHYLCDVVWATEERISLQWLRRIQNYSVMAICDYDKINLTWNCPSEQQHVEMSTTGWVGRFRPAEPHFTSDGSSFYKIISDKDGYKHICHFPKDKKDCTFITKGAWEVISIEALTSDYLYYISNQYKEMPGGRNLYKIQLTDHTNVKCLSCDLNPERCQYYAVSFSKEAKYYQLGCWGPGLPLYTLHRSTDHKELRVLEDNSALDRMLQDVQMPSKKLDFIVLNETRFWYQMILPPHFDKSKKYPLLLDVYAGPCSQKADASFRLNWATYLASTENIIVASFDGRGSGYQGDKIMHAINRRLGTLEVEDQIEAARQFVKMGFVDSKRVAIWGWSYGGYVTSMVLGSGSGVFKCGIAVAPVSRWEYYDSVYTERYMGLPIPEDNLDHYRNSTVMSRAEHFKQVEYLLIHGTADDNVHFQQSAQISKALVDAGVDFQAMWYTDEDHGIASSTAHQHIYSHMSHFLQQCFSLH

SMILES: Cl.N[C@H]1C[C@@H](N2Cc3ccc(N4CCC(O)(C(=O)NCc5cc(F)cc(F)c5F)C4=O)cc3C2)CO[C@@H]1c1cc(F)ccc1F (single isomer, unassigned; isomer 1) [Example 1]
weight loss compared to the vehicle group (obese DIO mice; oral 20 mg/kg once daily): about 8.9%

SMILES: Cl.N[C@H]1C[C@@H](n2cc(N3CCC(O)(C(=O)NCc4cc(Cl)cc(Cl)c4F)C3=O)cn2)CO[C@@H]1c1cc(F)ccc1F (single isomer, unassigned; isomer 1) [Example 7]
weight loss compared to the vehicle group (obese DIO mice; oral 40 mg/kg once daily): about 4.8%

IC50 [1]: < 1.52 nM
IC50 [2]: < 1.52 nM
SMILES: N[C@H]1C[C@@H](n2ncc(N3CCC(O)(C(=O)NCc4cc(Cl)cc(Cl)c4F)C3=O)n2)CO[C@@H]1c1cc(F)ccc1F (single isomer, unassigned; isomer 1) [Example 11, hydrochloride]
